Tested on: NF-κ B
Test: Inhibitory activity of NF-κ B activation, luciferase reporter assay in HepG2 under TNF-α stimulation
Format: cell-based, human
Conditions: HepG2, TNF-α (40 ng/ml), 4 hours; for inhibition at 1 µg/mL / inhibition at 10 µg/mL: Homo sapiens; for Inhibitory Ratio of NF-κ B Activation(%) Drug Concentration 1 μg/mL / inhibition at 1 µg/mL: 1 μg/mL; for inhibition at 1 µg/mL: read-out: Inhibitory Ratio of NF-κ B Activation(%) Drug Concentration 1 μg/mL; for Inhibitory Ratio of NF-κ B Activation(%) Drug Concentration 10 μg/mL / inhibition at 10 µg/mL: 10 μg/mL; for inhibition at 10 µg/mL: read-out: Inhibitory Ratio of NF-κ B Activation(%) Drug Concentration 10 μg/mL
Description: Using a transfection reagent(Effectene; QIAGEN), the human hepatoma cell strain HepG2 was transfected with a plasmid(pNF κ B-Luc Reporter Plasmid; […]) which is integrated with an oligonucleotide having five tandem copies of NF-κ B binding sequences([…]) on a upstream region of firefly luciferase gene(Luc) according to the QIAGEN's protocol, and the cells were incubated for 6 to 24 hours. After the addition of TNF-α (40 ng/ml) in the presence or absence of a test compound, the cells were incubated for 4 hours, and intracellular luciferase activity was measured by using PicaGene LT (TOYO INK MFG Co., Ltd.) and a chemical luminescence measurement apparatus ([…]luor Plus; TECAN). The inhibitory ratio was measured as a ratio relative to the value of a luciferase activity in the absence of the test compound.

Row | Inhibitory Ratio of NF-κ B Activation(%) Drug Concentration 1 μg/mL [%] | Inhibitory Ratio of NF-κ B Activation(%) Drug Concentration 10 μg/mL [%] | SMILES | inhibition at 1 µg/mL [%] | inhibition at 10 µg/mL [%]
1 | 93.9 | 96.3 | N#Cc1ccc(Oc2ccc(C(F)(F)F)cc2NC(=O)c2cc(Cl)ccc2O)cc1 [Compound No. 252] | – | –
2 | 85.3 | 90.2 | O=C(Nc1cc(Cl)cc(Cl)c1)c1c(O)ccc2ccccc12 [Compound No. 182] | – | –
3 | 37.4 | 87.1 | COc1ccc(C(C)(C)C)cc1NC(=O)c1cc(C)ccc1O [Compound No. 149] | – | –
4 | 83.0 | 93.3 | N#Cc1ccc(Cl)cc1NC(=O)c1cc(Cl)ccc1O [Compound No. 154] | – | –
5 | 32.4 | 95.7 | COc1ccc(OC)c(NC(=O)c2cc(Br)ccc2O)c1 [Compound No. 142] | – | –
6 | 14.3 | 92.3 | O=C(Nc1ccc(Cl)nc1)c1cc(Cl)ccc1O [compound 240] | – | –
7 | – | 85.7 | O=C(Nc1cnc2ccccc2c1)c1cc(Cl)ccc1O [Compound No. 242] | – | –

More lines, now with the values behind:

Row | SMILES | Inhibitory Ratio of NF-κ B Activation(%) Drug Concentration 1 μg/mL [%] | Inhibitory Ratio of NF-κ B Activation(%) Drug Concentration 10 μg/mL [%] | inhibition at 1 µg/mL [%] | inhibition at 10 µg/mL [%]
8 | Cc1nc(NC(=O)c2cc(Br)ccc2O)sc1C [Compound No. 191] | – | 67.2 | – | –
9 | CON=C(C)c1ccc(O)c(C(=O)Nc2cc(C(F)(F)F)cc(C(F)(F)F)c2)c1 [Compound No. 14] | 94.7 | 98.3 | – | –
10 | CC(=O)Oc1ccc(Cl)cc1C(=O)Nc1cc(C(F)(F)F)ccc1C(F)(F)F [Compound No. 82] | 94.0 | 96.8 | – | –
11 | CC(=NOCc1ccccc1)c1ccc(O)c(C(=O)Nc2cc(C(F)(F)F)cc(C(F)(F)F)c2)c1 [Compound No. 15] | 94.5 | 99.2 | – | –
12 | CCCCCCOc1ccc(S(C)(=O)=O)cc1NC(=O)c1cc(Cl)ccc1O [Compound No. 165] | 95.9 | 99.4 | – | –
13 | Cc1nc(-c2ccc(O)c(C(=O)Nc3cc(C(F)(F)F)cc(C(F)(F)F)c3)c2)cs1 [Compound No. 30, N-[3,5-Bis(trifluoromethyl)phenyl]-2-hydroxy-5-(2-methylthiazol-4-yl)benzamide] | – | – | 82.1 | 95.3
14 | O=C(Nc1cc(C(F)(F)F)cc(C(F)(F)F)c1)c1cc(Br)cc(-c2ccccc2)c1O [Compound No. 259] | >99.9 | – | – | –
15 | COC(=O)c1cc(NC(=O)c2cc(Br)ccc2O)cc(C(=O)OC)c1 [Compound No. 144, 5-bromo-2-hydroxy-N-[3,5-bis(methoxycarbonyl)phenyl]benzamide] | – | – | – | 56.4
16 | CC(=O)Oc1ccc(Cl)cc1C(=O)Nc1cc(C(F)(F)F)cc(C(F)(F)F)c1 [compound 5] | 96.5 | 99.2 | – | –
17 | CC(=O)Oc1ccccc1C(=O)Nc1cc(C(F)(F)F)cc(C(F)(F)F)c1 [compound 1, 2-acetoxy-N-[3,5-bis(trifluoromethyl)phenyl]benzamide] | – | – | 90.9 | 97.1
18 | O=C(Nc1ccccc1)Nc1ccc(O)c(C(=O)Nc2cc(C(F)(F)F)cc(C(F)(F)F)c2)c1 [Compound No. 46] | 20.5 | 88.4 | – | –
19 | CCCCc1nc(NC(=O)c2cc(Br)ccc2O)sc1-c1ccccc1 [Compound No. 198, 5-Bromo-N-(4-butyl-5-phenylthiazol-2-yl)-2-hydroxybenzamide] | – | – | 46.1 | 88.7
20 | COc1ccc(O)c(C(=O)Nc2cc(C(F)(F)F)ccc2Cl)c1 [Compound No. 101] | 17.7 | 82.0 | – | –
21 | O=C(Nc1nnc(C(F)(F)F)s1)c1ccccc1O [Compound No. 237, 2-Hydroxy-N-(5-trifluoromethyl-1,3,4-thiadiazol-2-yl)benzamide] | – | – | – | 81.9

From US20060089395A1, “Nf-kb activation inhibitors” (priority 2002, published 2006)
